According to ChEMBL document CHEMBL1142764, “Anti-HIV properties of cationic fullerene derivatives” (Bioorg Med Chem Lett, 2005):

How the values were obtained:
CCRF-CEM = assay: Cytostatic activity against CEM cell culture; assay type: functional; conditions: Homo sapiens
[1] = system: Human immunodeficiency virus 1; assay: Effective concentration against HIV-1; assay type: functional, organism-based
[2] = system: Human immunodeficiency virus 2; assay: Effective concentration against HIV-2; assay type: functional, organism-based

EC50 [1] [nM]	EC50 [2] [nM]	SMILES	CC50 (CCRF-CEM) [nM]
210	200	CC1C2c3cc4/c5c6c7c8c9c%10c6c4c4c3C3=C6c%11c%12c%13c%14c%15c(c9c9c%16c8c(c8/c(c%17c%18c%19c(c(c%11c%11c%19c%19c%17c8c%16c(c%149)c%19c%13%11)C62)C1C%181C[N+](C)(C)C1)=C\C/C=5)C7)C%10C4C31C[N+](C)(C)CC%12%151 (configuration not stated)	2930
> 25000	> 25000	C[N+]1(C)CC23C4=C5c6c7c8c9c%10c%11c%12c%13c%14c%15c%16c%17c%18c%19c%20c%21c%22c%23c%24c(c6C6%25C[N+](C)(C)CC%236C%21C6C%21=C%20C%18C%18C%20=C%21C(C4c4c%20c(c-%13c(c42)C%12C9C73C1)C%18C%14%17)C6C5%25)c8c1c%10c(c%11%15)c2c%16c%19c%22c2c%241 (configuration not stated)	> 125000
1080	2500	CC12C[N+](C)(C)CC34C5c6cc7c8c9c6-c6c5c5c%10c%11c6C6c%12c%13c%14c%15c%16c%17c%18c(c%19c%20c%21c%22c%23c%24c(c%10c%10c(c%12%11)c%14c%11c%10c%24c%22c%10c%20c%18c%15c%10%11)C5C35C=%23CC%215C%1914)C(C%17=C8C1(C[N+](C)(C)CC%16%131)C96)C72 (configuration not stated)	12500
350	700	CC1C2c3cc4c5c6c3C3=C7c8c9c%10c%11c%12c%13c%14c%15c(c-5c5c%16c%15c%15c%17c%18c%19c%20c%21c%22c(c(c8c8c%22c%22c%20c%18c%18c%15c%14c%11c%18c%22c%108)C72)C1C%211CC=%19C1(C%16%17)C1C[N+](C)(C)CC451)C%13C6C31C[N+](C)(C)CC9%121 (configuration not stated)	9040
